Test results published in patent US20230064307A1, “Pharmaceutical composition to destabilize abnormal methylation enzymes and use thereof” (priority 2021, published 2023).
Like-named read-outs stand apart in the source and are kept apart here.

Tests used:
cells with abnormal MEs [1] = assay: Differentiation inducer (DI) activity, ED25/ED50/ED75; type: cell-based
cells with abnormal MEs [2] = assay: Differentiation helper inducer (DHI) potency, RI0.5 (reductive index); type: cell-based
Text: DHI was our invention, which was the term we created. DHls are inhibitors of individual enzymes of MEs. Rl0.5 was the method we developed for the measurement of potency as DHI [67].

Water solubility = type: physicochemical
MAT = target: T1, MAT (Homo sapiens, UniProt P31153); assay: Helping role of DHI to boost the activity of DI, in cell culture (Km, Vmax of enzyme from treated cells); type: cell-based
T1 construct: endogenous in cells
Text: (§1) DHI was our invention, which was the term we created. DHls are inhibitors of individual enzymes of MEs. Rl0.5 was the method we developed for the measurement of potency as DHI [67]. Inhibitors of MT and SAHH are better than inhibitors of MAT to function as DHIs.

cells with abnormal MEs [3] = assay: Helping role of DHI to boost the activity of DI, in cell culture (% NBT+); type: cell-based
Text: as §1

MEs (MAT-MT-SAHH) = target: T2, MEs (MAT-MT-SAHH) (Rattus norvegicus, UniProt P10760); assay: Testosterone administration, sedimentation profiles of MEs from long-term hormone-depleted prostate (FIG. 1); type: in vivo; conditions: hypophysectomized rats, daily sc 1 mg for 3 days; single peak, intact ternary MEs
T2 construct: Cytosol extracts were prepared from prostates of each group; from tissue; host or cells: prostate cytosol of hypophysectomized rats
T2 sequence (P10760 1-432): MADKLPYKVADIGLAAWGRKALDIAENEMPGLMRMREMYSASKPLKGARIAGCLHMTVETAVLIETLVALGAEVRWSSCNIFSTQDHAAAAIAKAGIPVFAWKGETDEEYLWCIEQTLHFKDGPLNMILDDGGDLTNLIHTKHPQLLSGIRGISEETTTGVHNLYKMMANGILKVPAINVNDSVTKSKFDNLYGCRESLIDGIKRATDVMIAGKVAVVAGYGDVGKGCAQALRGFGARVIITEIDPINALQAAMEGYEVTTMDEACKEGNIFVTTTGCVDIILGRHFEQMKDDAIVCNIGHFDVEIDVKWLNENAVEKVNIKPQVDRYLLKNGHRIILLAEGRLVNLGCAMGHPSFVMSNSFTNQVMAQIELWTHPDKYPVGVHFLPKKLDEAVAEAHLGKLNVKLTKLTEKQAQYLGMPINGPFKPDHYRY
Description: Ten weeks after hypophysectomy, rats were divided into two groups. One group (b) received daily sc injection of I mg testosterone propionate dissolved in 0.25 ml of sesame oil for 3 days. The other group (a) was control without treatment. Cytosol extracts were prepared from prostates of each group with 5 volume of extraction buffer 0.05 M Tris HCl, pH 7.5, 50 mM KCl, 0.5 mM MgCl2. 0.1 ml of cytosol extracts were layered onto 5-20% linear sucrose density gradient for sedimentation analyses.

malignant brain tumors = conditions: in vivo; cited from earlier work
[4] = potency as DHI, RI0.5 is equivalent to ED25 of DI

T1 sequence (P31153 whole entry): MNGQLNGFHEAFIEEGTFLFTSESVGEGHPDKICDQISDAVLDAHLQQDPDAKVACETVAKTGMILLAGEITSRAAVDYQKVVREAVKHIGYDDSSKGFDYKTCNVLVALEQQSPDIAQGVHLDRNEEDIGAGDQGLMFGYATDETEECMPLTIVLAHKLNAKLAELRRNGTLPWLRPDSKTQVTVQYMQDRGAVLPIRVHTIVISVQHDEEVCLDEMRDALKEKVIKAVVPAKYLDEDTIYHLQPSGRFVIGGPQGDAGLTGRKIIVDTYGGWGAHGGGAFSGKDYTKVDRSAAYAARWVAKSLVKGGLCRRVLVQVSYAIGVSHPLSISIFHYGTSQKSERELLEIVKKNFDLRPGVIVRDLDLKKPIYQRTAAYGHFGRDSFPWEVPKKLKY

CCCCC(C)(C)[C@H](O)/C=C/[C@H]1[C@H](O)CC(=O)[C@@H]1C/C=C\CCCC(=O)O [16, 16-dimethylPGE2, 16,16-dimethylprosglandin E2]
ED25 (cells with abnormal MEs [1]): 10.8 µM | ED75 (cells with abnormal MEs [1]): 30.1 µM

CCCCC/C=C\C/C=C\C/C=C\C/C=C\CCCC(=O)O [AA, arachidonic acid]
ED25 (cells with abnormal MEs [1]): 24.0 µM

O=[As]O[As]=O (stereo not shown) [AS2O3]
RI0.5 (cells with abnormal MEs [2]; [4]): 0.28 µM

CC1=C(/C=C/C(C)=C/C=C/C(C)=C/C(=O)O)C(C)(C)CCC1 [ATRA, all-trans retinoic acid]
ED25 (cells with abnormal MEs [1]): 0.18 µM | ED75 (cells with abnormal MEs [1]): 0.75 µM

C/C(=C\C(=O)Nc1ccccc1C(=O)O)c1ccc2ccccc2c1 [BIBR1532]
ED25 (cells with abnormal MEs [1]): 32.3 µM | ED75 (cells with abnormal MEs [1]): 55.1 µM

CCCCC1C(=O)CC[C@H]2[C@@H]1CC(=O)[C@@H]2C/C=C\CCCC(=O)O (stereo partly shown) [BicycloPGE2, bicycloprostaglandin E2]
ED25 (cells with abnormal MEs [1]): 21.0 µM

COc1cc2c(cc1O)C[C@H]1c3c(cc(O)c(OC)c3-2)CCN1C [Boldine]
ED25 (cells with abnormal MEs [1]): 60.1 µM | ED75 (cells with abnormal MEs [1]): 94.2 µM

[Cl-].[Cl-].[Co+2] [CoCl2]
RI0.5 (cells with abnormal MEs [2]): 0.62 µM

COc1cc(/C=C/C(=O)CC(=O)/C=C/c2ccc(O)c(OC)c2)ccc1O [Curcumin]
water solubility (Water solubility): not good

CN(C)C=O [DMFA, dimethylformamide]
Km (MAT; in cell culture, DMFA, 0.3%): 16.4 µM | Vmax (% of control) (MAT; in cell culture, DMFA, 0.3%): 78 % of control | % NBT+ (cells with abnormal MEs [3]; DMFA, 0.3%): 14%

O=C(O[C@@H]1Cc2c(O)cc(O)cc2O[C@@H]1c1cc(O)c(O)c(O)c1)c1cc(O)c(O)c(O)c1 [Epigallocatechin gallate]
RI0.5 (cells with abnormal MEs [2]; [4]): 0.62 µM

C/C=C1\C(=O)C[C@H]2[C@@H]3CCC4=CC(=O)CC[C@]4(C)[C@H]3CC[C@]12C [Gugulsterone]
RI0.5 (cells with abnormal MEs [2]; [4]): 1.59 µM

O=C(O)Cc1ccccc1 [PA, phenylacetate]
Km (MAT; in cell culture, PA, 4 mM): 20.3 µM | Vmax (% of control) at 4000 µM (MAT; read-out: Vmax (% of control)): 88% | % NBT+ (cells with abnormal MEs [3]; PA, 4 mM): 7%

CCCCC[C@H](O)/C=C/[C@H]1[C@H](O)CC(=O)[C@@H]1C/C=C\CCCC(=O)O [PGE2, prostaglandin E2]
ED25 (cells with abnormal MEs [1]): 20.6 µM | ED75 (cells with abnormal MEs [1]): 46.5 µM

CCCCC[C@H](O)/C=C/[C@H]1C(=O)C=C[C@@H]1C/C=C\CCCC(=O)O [PGJ2, prostaglandin J2]
ED25 (cells with abnormal MEs [1]): 7.9 µM | ED75 (cells with abnormal MEs [1]): 20.5 µM

CC(=O)[C@H]1CC[C@H]2[C@@H]3CC=C4C[C@@H](O)CC[C@]4(C)[C@H]3CC[C@]12C [Pregnenolone]
RI0.5 (cells with abnormal MEs [2]; [4]): 7.16 µM | water solubility (Water solubility): not good

CC1=C(/C=C/C(C)=C/C=C/C(C)=C/C(=O)O)C(C)(C)CCC1 [RA, retinoic acid]
Km (MAT; in cell culture, RA, 0.15 µM, read-out: Km): 17.5 µM | remaining activity at 0.15 µM (MAT; in cell culture, RA, 0.15 µM, read-out: Vmax (% of control)): 60% | % NBT+ (cells with abnormal MEs [3]; RA, 0.15 µM): 16%

O=[Se](O)O [Selenite]
RI0.5 (cells with abnormal MEs [2]; [4]): 19.7 µM

C=CC1=C(C)C(=O)N=C1C=c1[nH]c(=Cc2[nH]c(O)c(C)c2CCC(=O)O)c(CCC(=O)O)c1C [Uroerythrin]
RI0.5 (cells with abnormal MEs [2]; [4]): 1.75 µM

C=C1CC[C@H](O)C/C1=C/C=C1\CCC[C@]2(C)[C@@H]([C@H](C)CCCC(C)C)CC[C@@H]12 [Vitamin D3]
RI0.5 (cells with abnormal MEs [2]; [4]): 0.61 µM

Cc1ccc(Nc2nccc(N(C)c3ccc4c(C)n(C)nc4c3)n2)cc1S(N)(=O)=O.Cl [Votrient]
RI0.5 (cells with abnormal MEs [2]; [4]): 10.1 µM

CCC(=O)O[C@H]1CC[C@H]2[C@@H]3CCC4=CC(=O)CC[C@]4(C)[C@H]3CC[C@]12C [testosterone propionate]
sedimentation of MEs (MAT, MT, SAHH) of prostate cytosol (MEs (MAT-MT-SAHH)): 8 S

CC[C@H](CC[C@@H](C)[C@H]1CC[C@H]2[C@@H]3CC=C4C[C@@H](O)CC[C@]4(C)[C@H]3CC[C@]12C)C(C)C [ß-sitoisterol]
RI0.5 (cells with abnormal MEs [2]; [4]): 1.72 µM

Phenylbutyric acid
response of malignant brain tumors (malignant brain tumors): responded very well | RI0.5 (cells with abnormal MEs [2]; [4]): 970 µM

Tetradecanoyl phorbol acetate [TPA]
ED25 (cells with abnormal MEs [1]): 0.00017 µM | ED75 (cells with abnormal MEs [1]): 0.00036 µM
